Patent US20020009747A1, “METHODS AND REAGENTS FOR IDENTIFYING MODULATORS OF NEURONAL APOPTOSIS” (priority 1997, published 2002)
Entries after “also recorded” stand apart in the source; their conditions may differ.

Tested on: primary sympathetic neurons
Experiment: NGF withdrawal assay, neuronal survival quantitated by MTT assay
Format: cell-based
Settings: protein expressed by recombinant adenovirus infection, NGF withdrawn
Description: One experimental system which can be used to assay for changes in death marker proteins in neurons undergoing cell death employs primary sympathetic neurons that are cultured for 3-5 days in nerve growth factor (NGF) to maintain their survival, after which time NGF is withdrawn to induce apoptosis. Death of the neuron occurs within 48 hours and requires transcription. […] Prior to the commitment point, the neurons can be rescued by re-supplying them with NGF; subsequent to the commitment point, the neurons can no longer be rescued, and are committed to die. As a part of the invention, we have shown that death due to NGF withdrawal in this assay is an apoptotic event (see Example V, below).
To confirm that primary sympathetic neurons die by apoptotic cell death, neurons were infected with a recombinant adenovirus expressing E1B55K, an adenoviral protein known to inhibit apoptosis by inhibiting p53. After adenovirus infection, NGF was withdrawn, and neuronal survival was then quantitated by MTT assay, as in Slack et al. supra.

Substance | neuronal survival / death after NGF withdrawal
Bcl2: a protein that can inhibit apoptosis | inhibits cell death in NGF-deprived neurons
E1B55K: adenoviral protein known to inhibit apoptosis by inhibiting p53, expressed from a recombinant adenovirus | inhibits death in NGF-deprived neurons; also recorded: rescue of sympathetic neuron apoptosis
